According to patent publication EP0028083A1, “Derivatives of clavulanic acid, a process for their preparation and pharmaceutical compositions containing them” (BEECHAM GROUP PLC, priority 1979, dated 1981):
≈ marks a conversion by molar mass, not a printed value.

Key:
Format in all cases: cell-based
E. coli JT39 [1] = test: MIC by standard microtitre technique, amoxycillin with and without compound
K. aerogenes E70 = test: as above
S. aureus Russell = test: as above
Kleb. aerogenes E70 = test: MIC by standard microtitre technique, ampicillin with and without inhibitor; settings: dilution in trytone soy broth
Procedure: (§1) By a standard microtitre technique the MIC values for ampicillin alone, ampicillin and 9-(4-benzyl piperazinyldeoxyclavulanic acid and 9-(4-benzyl)piperazin -1-yldeoxyclavulanic acid alone were determined.

Staph. aureus Russell = test: as above; settings: dilution in trytone soy broth
Procedure: as §1

E. coli JT39 [2] = test: as above; settings: dilution in trytone soy broth
Procedure: as §1

[3] = Amoxycillin + compound, concentration of inhibitor 1.0 µg/ml
[4] = Amoxycillin + compound, concentration of inhibitor 5.0 µg/ml
[5] = Ampicillin + inhibitor at 1µg/ml
[6] = Ampicillin + inhibitor at 5µg/ml

Compound | MIC (E. coli JT39 [1]; [3]) [µg/mL] | MIC (E. coli JT39 [1]; [4]) [µg/mL] | MIC (K. aerogenes E70; [3]) [µg/mL] | MIC (K. aerogenes E70; [4]) [µg/mL] | MIC (S. aureus Russell; [3]) [µg/mL] | MIC (S. aureus Russell; [4]) [µg/mL] | further results
O=C(OCc1ccc([N+](=O)[O-])cc1)[C@H]1/C(=C/CN2CCSCC2)O[C@@H]2CC(=O)N21 [Example 8, p-Nitrobenzyl 9-(thiomorpholino)deoxyclavulanate] | 8.0 | 2.0 | 3.1 | 1.6 | 0.62 |  | 
O=C(O)[C@H]1/C(=C/CN2CCN(Cc3ccccc3)CC2)O[C@@H]2CC(=O)N21 [Example 2, 9-(4-Benzylpiperazin-1-yl)deoxyclavulanic acid] |  |  |  |  |  |  | MIC (Kleb. aerogenes E70; [5]): 25 µg/mL; MIC (Kleb. aerogenes E70; [6]): 3.1 µg/mL; MIC (Kleb. aerogenes E70; Inhibitor alone): 500 µg/mL (≈ 1400 µM); MIC (Staph. aureus Russell; [5]): 0.3 µg/mL; MIC (Staph. aureus Russell; [6]): <0.01 µg/mL; MIC (Staph. aureus Russell; Inhibitor alone): 16 µg/mL (≈ 44.8 µM); MIC (E. coli JT39 [2]; [5]): 62 µg/mL; MIC (E. coli JT39 [2]; [6]): 16 µg/mL; MIC (E. coli JT39 [2]; Inhibitor alone): >500 µg/mL
CC1(C)S[C@@H]2[C@H](NC(=O)[C@H](N)c3ccccc3)C(=O)N2[C@H]1C(=O)O [Ampicillin, ampicillin, reference compound] |  |  |  |  |  |  | MIC (Kleb. aerogenes E70; Ampicillin alone): 1000 µg/mL (≈ 2860 µM); MIC (Staph. aureus Russell; Ampicillin alone): 1000 µg/mL (≈ 2860 µM); MIC (E. coli JT39 [2]; Ampicillin alone): >2000 µg/mL
CC1(C)S[C@@H]2[C@H](NC(=O)[C@H](N)c3ccc(O)cc3)C(=O)N2[C@H]1C(=O)O [Amoxycillin, reference compound] |  |  |  |  |  |  | MIC (E. coli JT39 [1]; Amoxycillin alone): 500 µg/mL (≈ 1370 µM); MIC (K. aerogenes E70; Amoxycillin alone): 500 µg/mL (≈ 1370 µM); MIC (S. aureus Russell; Amoxycillin alone): 500 µg/mL (≈ 1370 µM)
CCOC(=O)N1CCN(C/C=C2\O[C@@H]3CC(=O)N3[C@H]2C(=O)O)CC1 [Example 4, 9-(4-Ethoxycarbonylpiperazin-1-yl)deoxyclavulanic acid] | 31.2 | 4.0 | 6.2 | 1.5 | 1.25 | 0.3 | 
O=C(O)[C@H]1/C(=C/CN2CCOCC2)O[C@@H]2CC(=O)N21 [Example 11, 9-(Morpholino)deoxyclavulanic acid] | 16.0 | 4.0 | 3.1 | 1.5 | 0.6 | 0.15 | 
CC1CN(C/C=C2\O[C@@H]3CC(=O)N3[C@H]2C(=O)O)CC(C)O1 (stereo partly shown) [Example 13, 9-(2,6-DimethyLmorpholino)deoxyclavulanic acid] | 31.2 | 4.0 | 6.2 | 1.5 | 1.25 | 0.3 | 
O=C(O)[C@H]1/C(=C/CN2CCN(c3ccccc3)CC2)O[C@@H]2CC(=O)N21 [Example 15, 9-(4-Phenylpiperazin-l-yl)deoxyclavulanic acid] | 31.2 | 4.0 | 12.5 | 6.2 | 0.16 |  | 
